Results: paper PMC10116469 (Nature Communications, 2023)

How the values were obtained:
[1] = target: MPXV VP39 2′-O-RNA methyltransferase (Monkeypox virus, UniProt A0A7H0DN74); assay: biochemical
[2] = system: SARS-CoV-2 nsp14 N7-MTase; settings: cited from earlier work
[3] = IC50, individual fit of data set 1
[4] = IC50, individual fit of data set 2
[5] = IC50 average (averaged IC50 values from independent measurement)

Sequence of MPXV VP39 2′-O-RNA methyltransferase (A0A7H0DN74 whole entry, looked up): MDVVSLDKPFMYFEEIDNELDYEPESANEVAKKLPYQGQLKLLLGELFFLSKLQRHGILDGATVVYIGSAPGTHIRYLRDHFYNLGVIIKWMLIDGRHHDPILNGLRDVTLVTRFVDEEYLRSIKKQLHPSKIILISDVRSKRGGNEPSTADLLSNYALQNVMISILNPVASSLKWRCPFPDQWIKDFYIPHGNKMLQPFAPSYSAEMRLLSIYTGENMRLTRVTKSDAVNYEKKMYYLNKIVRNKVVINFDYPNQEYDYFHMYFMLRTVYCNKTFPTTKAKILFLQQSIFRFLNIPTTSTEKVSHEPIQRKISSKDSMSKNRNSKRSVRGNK

SMILES | HillSlope, individual fit of data set 1 [1] | HillSlope, individual fit of data set 2 [1] | LogIC50, fit of all data points [1] | LogIC50, individual fit of data set 1 [1] | LogIC50, individual fit of data set 2 [1] | IC50 ([1]; IC50, fit of all data points) | IC50 [1, 3] | IC50 [1, 4] | IC50 [1, 5] | inhibition of SARS-CoV-2 nsp14 [2] | IC50 ([1]; IC50) | IC50 ([1]; IC50 (mean ± SEM))
C=Cc1cn([C@@H]2O[C@H](CSCC[C@H](N)C(=O)O)[C@@H](O)[C@H]2O)c2ncnc(N)c12 [TO1116] | -0.9545 | -1.033 | -0.836 | -0.8617 | -0.8127 | 146 nM | 138 nM | 154 nM | 146 nM | – | – | –
Nc1ncnc2c1c(C#Cc1cccc3ccccc13)cn2[C@@H]1O[C@H](CSCC[C@H](N)C(=O)O)[C@@H](O)[C@H]1O [TO494] | -1.676 | ~ -5.860 | -0.9386 | -1.017 | ~ -0.7109 | 115 nM | 96.1 nM | – | 145 nM | – | – | –
Nc1ncnc2c1c(C#Cc1cnc3ccccc3c1)cn2[C@@H]1O[C@H](CSCC[C@H](N)C(=O)O)[C@@H](O)[C@H]1O [TO507] | -1.446 | -1.972 | -0.9412 | -0.9877 | -0.8836 | 114 nM | 103 nM | 131 nM | 117 nM | nanomolar inhibitors | – | –
Nc1ncnc2c1c(I)cn2[C@@H]1O[C@H](CSCC[C@H](N)C(=O)O)[C@@H](O)[C@H]1O [TO1119] | -1.304 | -1.575 | -0.8937 | -0.9194 | -0.8669 | 128 nM | 120 nM | 136 nM | – | – | 128 nM | –
CCc1cn([C@@H]2O[C@H](CSCC[C@H](N)C(=O)O)[C@@H](O)[C@H]2O)c2ncnc(N)c12 [TO1111] | -1.277 | -1.517 | -1.058 | -1.122 | -0.9871 | 87.5 nM | 75.5 nM | 103 nM | 89 nM | – | – | –
Nc1ncnc2c1c(C#Cc1nc3ccccc3[nH]1)cn2[C@@H]1O[C@H](CSCC[C@H](N)C(=O)O)[C@@H](O)[C@H]1O [TO500] | -1.441 | -1.353 | -0.7728 | -0.7814 | -0.7635 | 169 nM | 165 nM | 172 nM | 169 nM | – | – | –
Nc1ncnc2c1ncn2[C@@H]1O[C@H](C[C@@H](N)CC[C@H](N)C(=O)O)[C@@H](O)[C@H]1O [sinefungin, reference compound] | -0.961 | -0.8657 | 0.3693 | 0.3792 | 0.3552 | 2340 nM | 2390 nM | 2270 nM | 2330 nM | – | 2300 nM | –
Nc1ncnc2c1c(C#Cc1ccccc1)cn2[C@@H]1O[C@H](CSCC[C@H](N)C(=O)O)[C@@H](O)[C@H]1O [TO427] | -1.507 | -1.605 | -0.9412 | -0.9395 | -0.9422 | 114 nM | 115 nM | 114 nM | 115 nM | – | – | 115 ± 0.4 nM
Nc1ncnc2c1c(C#Cc1ccc3ccccc3c1)cn2[C@@H]1O[C@H](CSCC[C@H](N)C(=O)O)[C@@H](O)[C@H]1O [TO504] | -1.768 | -1.833 | -1.107 | -1.131 | -1.08 | 78.1 nM | 73.9 nM | 83.2 nM | 79 nM | – | – | –
